In patent US6521620B1, “Bicyclic compounds capable of inhibiting tyrosine kinases of the epidermal growth factor receptor family” (Warner-Lambert Company, priority 1994, dated 2003):
Read-outs that look alike come from different tables or passages of the source.

Key:
[1] = biological target: T1, Human EGF receptor tyrosine kinase (Homo sapiens, UniProt P00533); assay: EGF receptor tyrosine kinase inhibition (phosphorylation of PLC-gamma 1 derived peptide); format: biochemical
T1 construct: isolated from A431 human epidermoid carcinoma cells which overexpress EGF receptor; endogenous in cells; host or cells: A431 human epidermoid carcinoma cells; purified from the lysate on wheat germ agglutinin sepharose
T1 sequence (P00533 25-1210): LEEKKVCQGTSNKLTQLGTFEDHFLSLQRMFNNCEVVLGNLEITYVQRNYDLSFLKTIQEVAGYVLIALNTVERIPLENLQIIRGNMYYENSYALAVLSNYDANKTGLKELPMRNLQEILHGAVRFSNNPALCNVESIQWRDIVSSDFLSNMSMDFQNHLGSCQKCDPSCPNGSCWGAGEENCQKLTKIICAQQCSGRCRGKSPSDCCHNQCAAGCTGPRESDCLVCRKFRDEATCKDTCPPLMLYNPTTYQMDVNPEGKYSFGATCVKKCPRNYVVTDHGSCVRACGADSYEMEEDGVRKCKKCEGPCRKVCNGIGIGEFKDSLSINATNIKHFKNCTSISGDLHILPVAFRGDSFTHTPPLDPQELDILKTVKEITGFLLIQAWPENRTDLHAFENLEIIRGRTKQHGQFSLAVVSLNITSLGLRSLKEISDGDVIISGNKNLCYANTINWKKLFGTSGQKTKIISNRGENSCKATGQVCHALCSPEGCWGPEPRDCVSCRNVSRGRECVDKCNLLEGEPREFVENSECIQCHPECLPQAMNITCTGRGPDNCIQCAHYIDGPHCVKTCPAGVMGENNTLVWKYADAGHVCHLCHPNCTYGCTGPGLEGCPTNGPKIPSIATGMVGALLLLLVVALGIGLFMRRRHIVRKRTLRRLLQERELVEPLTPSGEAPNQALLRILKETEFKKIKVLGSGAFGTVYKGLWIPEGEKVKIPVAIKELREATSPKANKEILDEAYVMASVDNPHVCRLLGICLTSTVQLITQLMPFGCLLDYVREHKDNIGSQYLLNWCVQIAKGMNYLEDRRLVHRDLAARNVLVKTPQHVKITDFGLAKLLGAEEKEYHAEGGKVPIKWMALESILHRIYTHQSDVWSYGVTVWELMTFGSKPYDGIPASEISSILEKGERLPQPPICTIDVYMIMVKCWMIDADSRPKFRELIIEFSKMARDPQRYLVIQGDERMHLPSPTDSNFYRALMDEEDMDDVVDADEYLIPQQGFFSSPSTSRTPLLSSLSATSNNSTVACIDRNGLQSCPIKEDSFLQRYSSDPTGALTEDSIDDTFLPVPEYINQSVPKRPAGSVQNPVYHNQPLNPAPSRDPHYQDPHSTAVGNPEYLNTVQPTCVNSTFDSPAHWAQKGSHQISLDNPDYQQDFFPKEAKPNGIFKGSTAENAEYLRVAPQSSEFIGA
Description: Purification of Epidermal Growth Factor Receptor Tyrosine Kinase—Human EGF receptor tyrosine kinase was isolated from A431 human epidermoid carcinoma cells which overexpress EGF receptor by the following methods. Cells were grown in roller bottles in 50% Delbuco's Modified Eagle and 50% HAM F-12 nutrient media (Gibco) containing 10% fetal calf serum. Approximately 10^9 cells were lysed in two volumes of buffer containing 20 mM 2-(4N-[2-hydroxyethyl]piperazin-1-yl)ethanesulfonic acid (hepes), pH 7.4, 5 mM ethylene glycol bis(2-aminoethyl ether) N,N,N′,N′-tetraacetic acid, 1% Triton X-100, 10% glycerol, 0.1 mM sodium orthovanadate, 5 mM sodium fluoride, 4 mM pyrophosphate, 4 mM benzamide, 1 mM dithiothreitol, 80 μg/mL aprotinin, 40 μg/mL leupeptin and 1 mM phenylmethylsulfonyl fluoride. After centrifugation at 25,000×g for 10 minutes, the supernatant was equilibrated for 2 h at 4° C. with 10 mL of wheat germ agglutinin sepharose that was previously equilibrated with 50 mM Hepes, […], 0.1% Triton X-100 and 150 mM NaCl, pH 7.5, (equilibration buffer). Contaminating proteins were washed from the resin with 1 M NaCl in equilibration buffer, and the enzyme was eluted with 0.5 M N-acetyl-1-D-glucosamine in equilibration buffer, followed by 1 mM urea. The enzyme was eluted with 0.1 mg/ml EGF.
The reaction was terminated by the addition of 2 mL of […] phosphoric acid and passed through a 2.5 cm phosphocellulose filter disc to bind the peptide. The filter was washed five times with 75 mM phosphoric acid and placed in a vial along with 5 mL of scintillation fluid (Ready gel Beckman).

erbB-2, 3, 4 = assay: Inhibition of conditioned media-induced autophosphorylation in SK-BR-3 breast tumor cells; format: cell-based, human
Description: (§1) Cells were grown to 100% confluency in 100 mm Petrie dishes (Corning). After the cells were treated for 5 minutes with either EGF (epidermal growth factor), PDGF, or bFGF (basic fibroblast growth factor) (20 ng/ml) or 1 ml of conditioned media from MDA-MB-231 cells, the media was removed and the monolayer scraped into 1 ml of ice cold lysis buffer (50 mM Hepes, pH 7.5, 150 mM NaCl, 10% glycerol, 1% triton X-100, 1 mM EDTA, 1 mM EGTA, 10 mM sodium pyrophosphate, 30 mM p-nitrophenyl phosphate, 1 mM orthovanadate, 50 mM sodium fluoride, 1 mM phenylmethylsulfonylfluoride, 10 μg/ml of aprotinin, and 10 μg/ml of leupeptin). The lysate was transferred to a microfuge tube (small centrifuge that holds 1-2 ml plastic centrifuge tubes), allowed to sit on ice 15 minutes and centrifuged 5 minutes at 10,000×g. The supernatant was transferred to a clean microfuge tube and 5 μg of antibody was added to designated samples. The tubes were rotated for 2 hours at […] after which 25 μl of protein A sepharose was added and then rotation continued for at least 2 more hours. The protein A separose was washed 5 times with 50 mM Hepes, pH 7.5, 150 mM NaCl, 10% glycerol and 0.02% sodium azide. […] The extract were transferred to a microfuge tube and heated to 100° C. for 5 minutes. […] Proteins in the gel were electrophoretically transferred to nitrocellulose and the membrane was washed once in 10 mM Tris buffer, pH 7.2, 150 mM NaCl, 0.01% Azide (TNA) and blocked overnight in TNA containing 5% bovine serum albumin and 1% ovalbumin (blocking buffer). The membrane was blotted for 2 hours with the primary antibody (1 μg/ml in blocking buffer) and then washed 2 times sequentially in TNA, TNA containing 0.05% Tween-20 and 0.05% Nonidet P-40 (commercially available detergent) and TNA.

EGF receptor = biological target: T2, EGF receptor (Homo sapiens, UniProt P00533); assay: Inhibition of EGF-induced autophosphorylation in A431 epidermoid carcinoma cells; format: cell-based
T2 construct: EGF receptor autophosphorylation in A431 human epidermoid carcinoma; endogenous in cells; host or cells: A431 human epidermoid carcinoma cells (ATCC)
T2 sequence (P00533 25-1210): as above
Description: as §1

[2] = system: MDA-468 - Human breast carcinoma overexpressing the EGF receptor; assay: cells; conditions: read-out: Antiproliferative IC50 (nM)
Description: To obtain conditioned medium, MDA-MB-231 cells were grown to confluency in an 850 cm^2 roller bottle and the medium-replaced with 50 ml of serum-free medium. After 3 days the conditioned medium was removed, frozen down in aliquots and used as a heregulin source to stimulate erbB-2, 3, 4.
Cells (2×10^4) were seeded in 24-well plates (1.7×1.6 cm, flat bottom) in two mls of medium with or without various concentrations of drug. Plates were incubated for 3 days at 37° in a humidified atmosphere containing 5% CO2 in air. Cell growth was determined by cell count with a Coulter Model AM electronic cell counter (Coulter Electronics, Inc., Hialeah, Fla.).

[3] = system: B104-1-1 - NIH-3T3 fibroblasts transfected by the neu oncogene; assay: Growth inhibition assay (antiproliferative), B104-1-1; format: cell-based; conditions: Mus musculus; B104-1-1 cells
[4] = system: SK-BR-3 - Human breast carcinoma overexpressing erbB-2 and erbB-3; assay: Growth inhibition assay (antiproliferative), SK-BR-3; format: cell-based; conditions: SK-BR-3 cells
[5] = Table 1, values in nM, read-out: EGF Receptor Tyrosine Kinase Inhibition IC50
[6] = enzyme value repeated in the autophosphorylation table, read-out: EGFR IC50
[7] = SK-BR-3 cells, read-out: SKBR-3 IC50
[8] = Table 1, values printed in μM, read-out: EGF Receptor Tyrosine Kinase Inhibition IC50
[9] = Table 1, values in pM, read-out: EGF Receptor Tyrosine Kinase Inhibition IC50

Structure (SMILES)	IC50 [1, 5] [nM]	IC50 [1, 6] [nM]	IC50 (erbB-2, 3, 4; [7]) [nM]	IC50 (EGF receptor) [nM]	also measured
Nc1cc2ncnc(Nc3cccc([N+](=O)[O-])c3)c2cn1 [Example 22, 7-Amino-4-(3-nitroanilino)pyrido[4,3-d]pyrimidine]	39	39	~1500	252	–
CN(C)c1ccc2ncnc(Nc3cccc(Br)c3)c2n1 [Example 8, 4-(3-Bromoanilino)-6-dimethylaminopyrido[3,2-d]pyrimidine]	9.6	9.6	71	32	–
COc1cc2c(Nc3cccc(Br)c3)ncnc2cn1 [Example 59, 4-(3-Bromoanilino)-6-methoxypyrido[3,4-d]pyrimidine]	2.6	2.6	< 10	12	–
Nc1cc2ncnc(Nc3ccccc3C(F)(F)F)c2cn1 [Example 30, 7-Amino-4-(2-trifluoromethylanilino)pyrido[4,3-d]pyrimidine]	–	–	–	–	melting point: 126 to 130 °C (dec.); IC50 [1, 8]: 10000 nM
CNc1ccc2ncnc(Nc3cccc(Br)c3)c2n1 [Example 7, 4-(3-Bromoanilino)-6-methylaminopyrido[3,2-d]pyrimidine]	3.1	3.1	100	20	–
CN(C)c1cc2c(Nc3cccc(Br)c3)ncnc2cn1 [Example 61, 4-(3-Bromoanilino)-6-dimethylaminopyrido[3,4-d]pyrimidine]	–	0.006	–	21	IC50 [1, 9]: 0.006 nM; IC50 (erbB-2, 3, 4; read-out: SKBR-3 IC50 nM, SK-BR-3 cells): 39 nM; IC50 [2]: 12000 nM; IC50 [3]: 1000 nM; IC50 [4]: 900 nM
CNc1cc2c(Nc3cccc(Br)c3)ncnc2cn1 [Example 60, 4-(3-Bromoanilino)-6-methylaminopyrido[3,4-d]pyrimidine]	–	0.008	< 10	13	IC50 [1, 9]: 0.008 nM; IC50 [2]: 3000 nM; IC50 [3]: 2100 nM; IC50 [4]: 600 nM
Fc1ccc2ncnc(Nc3cccc(Br)c3)c2n1 [Example 4, 4-(3-Bromoanilino)-6-fluoropyrido[3,2-d]pyrimidine]	225	225	> 10000	> 1000	–
CN(C)c1ccc2c(Nc3cccc(Br)c3)ncnc2n1 [Example 67, 4-(3-Bromoanilino)-7-dimethylaminopyrido[2,3-d]pyrimidine]	–	–	–	–	IC50 [1, 8]: 6100 nM
Brc1cccc(Nc2ncnc3cnc(N4CCCCC4)cc23)c1 [Example 79, 4-(3-Bromoanilino)-6-(piperidin-1-yl)pyrido[3,4-d]pyrimidine]	6.7	–	–	–	–
COc1ccc2ncnc(Nc3cccc(Br)c3)c2n1 [Example 9, 4-(3-Bromoanilino)-6-methoxypyrido[3,2-d]pyrimidine]	405	–	–	–	–
Nc1cc2ncnc(Nc3cccc(I)c3)c2cn1 [Example 29, 7-Amino-4-(3-iodoanilino)pyrido[4,3-d]pyrimidine]	262	–	–	–	–
Nc1cc2ncnc(NCc3cccs3)c2cn1 [Example 53, 7-Amino-4-(thien-2-ylmethylamino)[4,3-d]pyrimidine Dimesylate]	–	–	–	–	IC50 [1, 8]: 1800 nM
CN(C)c1cccc(Nc2ncnc3cc(N)ncc23)c1 [Example 19, 7-Amino-4-(3-dimethylaminoanilino)pyrido [4,3-d]pyrimidine]	–	–	–	–	IC50 [1, 8]: 1800 nM
Nc1ccc2ncnc(Nc3cccc(Br)c3)c2n1 [Example 6, 4-(3-Bromoanilino)-6-aminopyrido[3,2-d]pyrimidine]	7.6	7.6	2660	53	–
Nc1cccc(Nc2ncnc3cc(N)ncc23)c1 [Example 17, 7-Amino-4-(3-aminoanilino)pyrido[4 3-d]pyrimidine]	–	–	–	–	IC50 [1, 8]: 1550 nM

Second part, led by results:

IC50 [1, 5] [nM]	IC50 [1, 6] [nM]	IC50 (erbB-2, 3, 4; [7]) [nM]	IC50 (EGF receptor) [nM]	Structure (SMILES)	also measured
220	–	–	–	C[C@@H](Nc1ncnc2cc(N)ncc12)c1ccccc1 [Example 41, 7-Amino-4-([R]-1-phenylethylamino)pyrido[4,3-d]pyrimidine]	melting point: 231.8 to 232.1 °C
–	55	> 1000	–	c1ccc(CNc2nc[nH]c3nccc2-3)cc1 [Example 74, 4-Benzylaminopyrrolo[2,3-d]pyrimidine]	IC50 [1, 8]: 11500 nM
473	11	< 10	–	NNc1ncc2c(NCc3ccccc3)ncnc2n1 [Example 70, 4-Benzylamino-7-hydrazinopyrimido[4,5-d]pyrimidine]	–
590	–	–	–	C[C@@H](Nc1ncnc2ccncc12)c1ccccc1 [Example 39, 4-([R]-1-Phenylethylamino)pyrido[4,3-d]pyrimidine]	melting point: 138 to 138.5 °C
100	–	–	–	CC(=O)Nc1cc2ncnc(NCc3ccccc3)c2cn1 [Example 54, 7-Acetylamino-4-benzylaminozpyrido[4,3-d]pyrimidine]	–
